Data as given in US7825111B2, “Substituted spiroheterocycles” (Janssen Pharmaceutica NV, priority 2006, dated 2010).

Key:
[1] = biological target: T1, human V1a receptor (Homo sapiens, UniProt P37288); test: In-vitro binding assay, 3H-arginine-8-vasopressin, V1a membranes; settings: membrane containing human V1a receptor; for IC50: 3H-vasopressin 0.65-0.75 nM; for inhibition at 0.2 µM: read-out: V1a (binding) Percent inhibition at 0.2 μM
Procedure: (§1) Assay buffer is 50 mM Tris-Cl, 5 mM MgCl2, 0.1% BSA (pH 7.5) containing 5 μg/ml of aprotinin, leupeptin, pepstatin, 50 μg/ml bacitracin, and 1 mM Pefabloc (4-(2-Aminoethyl)-benzenesulfonyl fluoride, hydrochloride manufactured by Roche Diagnostics Corporation, Indianapolis, Ind. and distributed by Boehringer Mannheim). H3 vasopressin is ^3H-arginine-8-vasopressin (NEN Life Sciences, Boston, Mass.; 68.5 Ci/mmol, final concentration in assay is 0.65-0.75 nM). Into wells of 96-well round bottom polypropylene plates are added buffer, test compound, membrane (containing human V1a or V2 receptor), and H3 vasopressin. The reaction plates are allowed to sit at room temperature for one hour. The samples are filtered through Unifilter GF/C plates (PerkinElmer Life Sciences, Boston, Mass.) presoaked in 0.3 polyethyleneimine. The plates are washed 5 times with cold physiological saline containing 0.05% Tween 20. After drying, the bottom of the filter plates are sealed and 0.025 ml of Microscint-20 (Packard Instrument Co, Meriden, Conn.) is added to each filter. The top of the plate is sealed, and the plate is counted. Non-specific binding is determined by the addition of 1.25 μM arginine-8-vasopressin in those wells. % Inh. is calculated as follows: % inhibition=100−100×peak response after drug/peak response before drug

[2] = biological target: T2, human V2 receptor (Homo sapiens, UniProt P30518); test: In-vitro binding assay, 3H-arginine-8-vasopressin, V2 membranes; settings: membrane containing human V2 receptor; for inhibition at 0.2 µM: read-out: V2 (binding) Percent inhibition at 0.2 μM; for IC50: 3H-vasopressin 0.65-0.75 nM
T2 sequence (P30518 whole entry): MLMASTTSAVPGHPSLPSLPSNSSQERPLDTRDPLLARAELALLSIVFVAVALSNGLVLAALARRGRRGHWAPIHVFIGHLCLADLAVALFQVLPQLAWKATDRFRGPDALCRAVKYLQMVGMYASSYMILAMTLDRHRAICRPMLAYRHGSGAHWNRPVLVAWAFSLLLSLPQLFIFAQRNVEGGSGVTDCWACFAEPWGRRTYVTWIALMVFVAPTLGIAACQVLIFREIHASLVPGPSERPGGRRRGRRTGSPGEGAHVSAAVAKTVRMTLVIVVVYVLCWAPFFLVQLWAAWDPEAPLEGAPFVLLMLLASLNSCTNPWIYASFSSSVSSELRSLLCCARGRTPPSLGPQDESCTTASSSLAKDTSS
Procedure: as §1

[3] = biological target: T2, human V2 receptor; test: V2 vasopressin receptor functional activity (cAMP accumulation, V2-HEK cells); assay type: cell-based; set-up: expressed in transfected cells; host or cells: HEK-293; settings: inhibition of vasopressin-stimulated cAMP accumulation in V2-HEK cells
Procedure: The V2 receptor is also a G-protein coupled receptor which when activated induces an increase in cAMP turnover. Antagonism against the V2 receptor is determined by measuring cAMP accumulation in transfected HEK-293 cells expressing the human V-2 receptor (V2-HEK cells). Compounds are tested for their ability to block the stimulatory effects of vasopressin on cAMP accumulation. The cell content of cAMP is measured by radioimmunoassay using NEN flashplates.

[4] = biological target: T1, human V1a receptor; test: V1a vasopressin receptor functional activity (calcium mobilization, FLIPR, V1a-HEK cells); assay type: cell-based; settings: inhibition of vasopressin-induced intracellular calcium mobilization in V1a-HEK cells
Procedure: The V1a receptor is a G-protein coupled receptor, which upon activation triggers an increase in intracellular calcium mobilization. To evaluate compounds for their functional V1a receptor activity, HEK-293 cells were transfected with the human V1a receptor (V1a-HEK cells). HEK-293 cells were grown in DMEM (Dulbecco's modified Eagle Media) supplemented with 10% FBS and glutamine. HEK-cells were passed biweekly by trypsinization and seeded into 96 well plates at 33,000 cells per well. HEK-293 cells were transfected with human V1a receptor DNA using DMRIE-C reagent from Life Technologies (Carlsbad, Calif.). Stable lines were generated by selecting cells grown in culture media containing geneticin. After growing in Packard Clear-View black 96 well plates for 4-6 days, V1a-HEK cells were loaded with the calcium-sensitive fluorescence dye, FLUO-3 AM. Changes in intracellular calcium mobilization were measured by quantitating intracellular fluorescence using FLIPR (Fluorometric Imaging Plate Reader; Molecular Devices, Sunnyvale, Calif.). Test compounds were first added to the cells and the resulting changes in fluorescence measured to detect receptor agonistic activity. Five minutes later the cells were challenged with vasopressin to test compounds for their antagonistic activity. Receptor antagonists inhibit the ability of vasopressin to stimulate increases in intracellular fluorescence. IC50's were calculated.

T1 sequence (P37288 whole entry): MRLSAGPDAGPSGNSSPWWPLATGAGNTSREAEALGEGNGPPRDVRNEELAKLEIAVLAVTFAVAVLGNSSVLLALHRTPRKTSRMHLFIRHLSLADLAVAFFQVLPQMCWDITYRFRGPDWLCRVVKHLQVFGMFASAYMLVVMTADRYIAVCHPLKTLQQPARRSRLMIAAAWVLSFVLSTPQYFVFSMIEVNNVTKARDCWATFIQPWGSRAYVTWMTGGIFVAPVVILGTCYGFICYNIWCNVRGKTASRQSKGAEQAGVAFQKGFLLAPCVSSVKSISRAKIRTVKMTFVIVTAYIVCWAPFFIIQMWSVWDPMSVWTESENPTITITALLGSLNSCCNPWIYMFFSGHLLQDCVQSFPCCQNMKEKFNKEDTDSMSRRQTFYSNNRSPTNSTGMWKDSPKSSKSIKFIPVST

| SMILES | IC50 [1] [nM] | inhibition at 0.2 µM [2] [%] | IC50 [3] [µM] | IC50 [4] [µM] | IC50 [2] [nM] | inhibition at 0.2 µM [1] [%] |
| --- | --- | --- | --- | --- | --- | --- |
| O=C(Nc1ccc(C(=O)N2CCC3(CCCNC3=O)Cc3ccccc32)cc1)c1cc(F)ccc1Cl (stereo not shown) [Compound 7, Benzamide, 2-chloro-N-[4-{(2,3-dihydro-2′-oxospiro[4H-1-benzazepine-4,3-piperidin}-1(5H)-yl)carbonyl}phenyl]-5-fluoro] | 9 | 63 | 0.49 | 0.05 | – | – |
| CN1CCCC2(CCN(C(=O)c3ccc(NC(=O)c4ccccc4-c4ccccc4)cc3)c3ccccc3C2)C1=O (stereo not shown) [Compound 10, [1,1′-Biphenyl]-2-carboxamide, N-[4-[(2,3-dihydro-1′-methyl-2′-oxospiro{4H-1-benzazepine-4,3′-piperidin}-1(5H)-yl)carbonyl]phenyl}-] | 47 | – | – | 0.38 | 50 | – |
| CCN1CCCC2(CCN(C(=O)c3ccc(NC(=O)c4ccccc4-c4ccccc4)cc3)c3ccccc3C2)C1=O (stereo not shown) [Compound 11, [1,1′-Biphenyl]-2-carboxamide, N-[4-[(2,3-dihydro-1′-ethyl-2′-oxospiro{4H-1-benzazepine-4,3′-piperidin}-1(5H)-yl)carbonyl]phenyl}-] | 56 | – | 0.132 | 0.05 | 61 | – |
| O=C(Nc1ccc(C(=O)N2CCC3(CCNC3=O)Cc3ccccc32)cc1)c1cc(F)ccc1Cl (stereo not shown) [Compound 18, Benzamide, 2-chloro-N-[4-{(2,3-dihydro-2′-oxospiro[4H-1-benzazepine-4,3-pyrrolidin}-1(5H)-yl)carbonyl}phenyl]-5-fluoro] | 8 | – | 0.226 | 0.01 | 150 | – |
| CN1CCC2(CCN(C(=O)c3ccc(NC(=O)c4ccccc4-c4ccccc4)cc3)c3ccccc3C2)C1=O (stereo not shown) [Compound 21, [1,1′-Biphenyl]-2-carboxamide, N-[4-[(2,3-dihydro-1′-methyl-2′-oxospiro{4H-1-benzazepine-4,3′-pyrrolidin}-1(5H)-yl)carbonyl]phenyl}-] | 43 | – | 0.437 | 0.08 | 37 | – |
| CCOC(=O)CN1CCC2(CCN(C(=O)c3ccc(NC(=O)c4cc(F)ccc4Cl)cc3)c3ccccc3C2)C1=O (stereo not shown) [Compound 22, Spiro{4H-1-benzazepine-4,3′-pyrrolidin}-1′-acetic acid, 1-[{(2-chloro-5-fluorobenzoyl)amino}benzoyl]1,2,3,5-tetrahydro-2′-oxo, ethyl ester] | – | 17 | – | – | – | 66 |
| O=C(O)CN1CCC2(CCN(C(=O)c3ccc(NC(=O)c4cc(F)ccc4Cl)cc3)c3ccccc3C2)C1=O (stereo not shown) [Compound 23, Spiro{4H-1-benzazepine-4,3′-pyrrolidin}-1′-acetic acid, 1-[{(2-chloro-5-fluorobenzoyl)amino}benzoyl]1,2,3,5-tetrahydro-2′-oxo-] | – | 17 | – | – | – | 27 |
| O=C(Nc1ccc(C(=O)N2CCC3(CCNC3=O)Cc3ccccc32)cc1)c1ccccc1-c1ccccc1 (stereo not shown) [Compound 25, [1,1′-Biphenyl]-2-carboxamide, N-[4-[(2,3-dihydro-2′-oxospiro{4H-1-benzazepine-4,3′-pyrrolidin}-1(5H)-yl)carbonyl]phenyl}-] | 7 | – | 0.062 | 0.054 | 18 | – |
| O=C(Nc1ccc(C(=O)N2CCC3(CCNC3=O)Cc3ccccc32)cc1)c1ccccc1F (stereo not shown) [Compound 26, Benzamide, 2-fluoro-N-[4-{(2,3-dihydro-2′-oxospiro[4H-1-benzazepine-4,3-pyrrolidin}-1(5H)-yl)carbonyl}phenyl]] | 160 | – | – | – | 230 | – |
| Cc1ccc(F)cc1C(=O)Nc1ccc(C(=O)N2CCC3(CCNC3=O)Cc3ccccc32)cc1 (stereo not shown) [Compound 27, Spiro{4H-1-benzazepine-4,3′-pyrrolidin}-[{(2-methyl-5-fluorobenzoyl)amino}benzoyl]1,2,3,5-tetrahydro-2′-oxo-] | 15 | – | – | – | 89 | – |
| O=C1CCCC2(CCN(C(=O)c3ccc(NC(=O)c4ccccc4-c4ccccc4)cc3)c3ccccc3C2)N1 (stereo not shown) [Compound 35, [1,1′-Biphenyl]-2-carboxamide, N-[4-[(2,3-dihydro-6′-oxospiro[4H-1-benzazepine-4,2′-piperidin]-1(5H)-yl)carbonyl]phenyl}-] | 45 | – | 0.06 | 0.05 | 230 | – |
| O=C(Nc1ccc(C(=O)N2CCC3(CCCNC3=O)Cc3ccccc32)cc1)c1ccccc1F (stereo not shown) [Compound 36, Benzamide, 2-fluoro-N-[4-{(2,3-dihydro-2′-oxospiro[4H-1-benzazepine-4,3-piperidin}-1(5H)-yl)carbonyl}phenyl]] | 27 | 17 | > 3 | 0.05 | – | – |
| O=C(Nc1ccc(C(=O)N2CCC3(CCCNC3=O)Cc3ccccc32)cc1)c1ccccc1 (stereo not shown) [Compound 37, Benzamide, N-[4-{(2,3-dihydro-2′-oxospiro[4H-1-benzazepine-4,3-piperidin}-1(5H)-yl)carbonyl}phenyl]] | 50 | 23 | – | 0.12 | – | – |
| Cc1ccc(F)cc1C(=O)Nc1ccc(C(=O)N2CCC3(CCNC3=O)Cc3ccccc32)cn1 (stereo not shown) [Compound 38, Spiro{4H-1-benzazepine-4,3′-pyrrolidin}-[{(2-methyl-5-fluorobenzoyl)amino}nicotinoyl]1,2,3,5-tetrahydro-2′-oxo-] | – | – | 0.036 | 0.13 | 93 | 64 |
| COc1cc(C(=O)N2CCC3(CCN(C)C3=O)Cc3ccccc32)ccc1NC(=O)c1cc(F)ccc1Cl (stereo not shown) [Compound 39] | – | – | – | 0.07 | 8 | 58 |
